{"source": "patent US20230407304A1", "about": "“USE OF MICRORNA INHIBITION TO PREVENT AND TREAT OSTEOARTHRITIS AND OTHER INFLAMMATORY DISEASES” (VIRGINIA COMMONWEALTH UNIVERSITY, priority 2020, published 2023)", "key": {"[1]": {"tested_on": "rat articular chondrocytes (rArCs)", "assay": "WNT/β-catenin agonist or antagonist treatment of rArCs with or without IL-1β", "type": "cell-based"}, "[2]": {"tested_on": "rat articular chondrocytes (rArCs)", "assay": "WNT/β-catenin agonist or antagonist treatment of rArCs with or without TNF-α", "type": "cell-based"}, "WNT/β-catenin": {"tested_on": "WNT/β-catenin", "details": "literature; cited from earlier work"}, "articular chondrocytes": {"tested_on": "articular chondrocytes", "assay": "miR-122 / miR-451 transfection of articular chondrocytes in presence and absence of IL-1β", "type": "cell-based, rat", "text": "The following Examples with these microRNAs established their functions in articular chondrocytes in the presence and absence of the inflammatory cytokine IL-1β. Since IL-1β signaling is a major contributor of OA, a well-established model of creating an osteoarthritic phenotype in vitro is to stimulate cell cultures with this cytokine. This study first established that both these microRNAs were elevated in OA in the bilateral ACLT model.\nThe miR-451 miR (SEQ ID NO:10) was originally chosen as a control miR but it had surprising and very specific functions. […] A series of transfections and inhibition experiments with these microRNAs confirmed that these changes were due to the microRNAs themselves."}, "[3]": {"tested_on": "rat articular chondrocytes (rArCs)", "assay": "miR mimic or inhibitor transfection of rArCs with or without TNF-α stimulation", "type": "cell-based", "procedure": "FIGS. 7A-7F show assessment of miR-122 and miR-451 transfection or inhibition on TNF-α stimulated rat articular chondrocytes. rArCs were transfected at 60% confluence with miR-122, miR-451, miR-122-inhibitor (122-Inh), miR-451 inhibitor (451-Inh), or an empty vehicle (Lipo) for 24 hours followed by 24 hours with or without 10 ng/mL TNF-α stimulation. (FIG. 7A, 7D) Total DNA was measured from the cell monolayer and (FIG. 7B, 7E) MMP-13 and (FIG. 7C, 7F) PGE2 proteins were measured from the conditioned media. Groups not sharing a letter (A, B or C over bar) are statistically significant using an alpha=0.05.\nRat articular chondrocytes (rArCs) were isolated using a previously established protocol (see Scott, supra). Briefly, rArCs were isolated from femoral condyles and tibial plateaus from 100-125 g male Sprague Dawley rats. Cartilage was sterilely sliced from the articular surfaces using a surgical blade and placed in Dulbecco's modification of Eagle's medium with 1 g/L glucose, 50 U/mL penicillin and streptomycin (pen-strep) (DMEM). After removing DMEM, cartilage was incubated with 0.05% trypsin (20 mins, 37° C.), rinsed with DMEM (50 U/mL pen-strep, 20 mins, 37° C.), and then digested with sterile-filtered 0.03% collagenase type II solution (Worthington Biochemical, Lakewood, NJ) in Hank's balanced salt solution (16 hrs, 37° C.). Digestion was quenched with an equal volume of DMEM containing 10% fetal bovine serum (FBS) and 50 U/mL pen-strep, strained through a 40 μm strainer (Greiner Bio-one, North Carolina), spun down at 500×g for 10 mins and plated at a seeding density of 15,000 cells/cm^2. These cells are at passage 0. All experiments used cells at passage 1.\nrArCs were plated at a seeding density of 15,000 cells/cm^2 and fed with DMEM supplemented with 10% FBS and 50 U/mL pen-strep. Media were changed 24 hours after plating and then every 48 hours. After treatments described below, conditioned media were collected, centrifuged at 1,000×g for 10 mins to remove cellular debris, aliquoted, and stored at −80° C. until assayed. Cell monolayers were rinsed twice with 1 mL of 1×PBS, lysed in 500 μL of 0.05% Triton X-100, and frozen for later DNA analysis. MMP-13 (ANASpec, Fremont, CA) and PGE2 (R&D Systems) were measured in the conditioned media by a microplate reader at ex/em 490 nm/520 nm, and 450 nm absorbance, respectively, in accordance with the manufacturer's directions. Data were normalized to the DNA content of the cell monolayer. Cell layers were thawed, and mechanically lysed by ultrasonication (40V, 10s/well) (VCX-120; Vibra-cell, Newtown, CT) and DNA was measured using QuantiFluor dsDNE system kit (Promega, Madson, WI) and quantified on a fluorescence plate reader at ex/em 504 nm/531 nm. […]"}, "[4]": {"tested_on": "rat articular chondrocytes (rArCs)", "assay": "Stimulation of rArCs with IL-1β or TNF-α (total DNA, MMP-13, PGE2)", "type": "cell-based", "details": "10 ng/mL IL-1β or 5 and 10 ng/mL TNF-α, 24 hours, vs control", "procedure": "FIGS. […] (FIG. 6A) Total DNA was measured from the cell monolayer and (FIG. 6B) MMP-13, and (FIG. 6C) PGE2 proteins were measured from the conditioned media. Groups not sharing a letter (D, C, B or A over bar) are statistically significant using an alpha=0.05.\nRat articular chondrocytes (rArCs) were isolated using a previously established protocol (see Scott, supra). Briefly, rArCs were isolated from femoral condyles and tibial plateaus from 100-125 g male Sprague Dawley rats. Cartilage was sterilely sliced from the articular surfaces using a surgical blade and placed in Dulbecco's modification of Eagle's medium with 1 g/L glucose, 50 U/mL penicillin and streptomycin (pen-strep) (DMEM). […]\nrArCs were plated at a seeding density of 15,000 cells/cm^2 and fed with DMEM supplemented with 10% FBS and 50 U/mL pen-strep. […] MMP-13 (ANASpec, Fremont, CA) and PGE2 (R&D Systems) were measured in the conditioned media by a microplate reader at ex/em 490 nm/520 nm, and 450 nm absorbance, respectively, in accordance with the manufacturer's directions. […] Cell layers were thawed, and mechanically lysed by ultrasonication (40V, 10s/well) (VCX-120; Vibra-cell, Newtown, CT) and DNA was measured using QuantiFluor dsDNE system kit (Promega, Madson, WI) and quantified on a fluorescence plate reader at ex/em 504 nm/531 nm. […]"}, "[5]": {"details": "miR transfection of articular chondrocytes"}, "[6]": {"details": "miR transfection plus IL-1β stimulation"}}, "note": "Entries after “also recorded” stand apart in the source; their conditions may differ.", "data": [{"compound": "[Cl-].[Li+]", "note": "[LiCl, lithium chloride]", "values": [{"measurement": "total DNA", "setting": "[1]", "result": "decreased total DNA"}, {"measurement": "total DNA", "setting": "[2]", "result": "decreased total DNA to similar levels; also recorded: marginally decreased this"}]}, {"compound": "PKF115-584", "values": [{"measurement": "IL-1β and TNF-α induced cartilage degradation", "setting": "WNT/β-catenin", "result": "block IL-1β and TNF-α induced cartilage degradation"}]}, {"compound": "miR-122: mirVana miRNA mimic rno-miR-122-5p; UGGAGUGUGACAAUGGUGUUUG (UGGAGUGUGACAAUGGUGUUUG; listed as RNA, chemistry not given here)", "values": [{"measurement": "proliferation", "setting": "articular chondrocytes; [5]", "result": "stimulated proliferation"}, {"measurement": "total DNA", "setting": "articular chondrocytes; [5]", "result": "increased total DNA"}, {"measurement": "IL-1β-stimulated MMP-13", "setting": "articular chondrocytes; [6]", "result": "able to prevent the IL-1β-stimulated increase"}, {"measurement": "IL-1β-stimulated PGE2", "setting": "articular chondrocytes; [6]", "result": "able to prevent the IL-1β-stimulated increase"}, {"measurement": "growth factor VEGF", "setting": "articular chondrocytes; [6]", "result": "prevented IL-1β-stimulated increase"}, {"measurement": "inflammatory mediators, cytokines, chemokines (IL-1α, IL-2, IL-4, IL-6, GM-CSF, MIP-1A; RANTES for miR-122)", "setting": "articular chondrocytes; [6]", "result": "prevented IL-1β-stimulated increase"}, {"measurement": "change of total DNA on TNF-α treatment in transfected cells", "setting": "[3]; 14.5 nM mimic 24 hours, then 10 ng/mL TNF-α 24 hours", "result": "modestly decreased total DNA"}, {"measurement": "total DNA after mimic transfection", "setting": "[3]; 14.5 nM mimic, 24 hours, vs Lipo control", "result": "increased total DNA"}]}, {"compound": "IL-1β: inflammatory cytokine (Peprotech) used to stimulate chondrocyte cultures", "values": [{"measurement": "total DNA of cell monolayer", "setting": "[4]", "result": "no differences in DNA"}]}, {"compound": "Cn1ncnc2c(=O)n(C)c(=O)nc1-2", "note": "[PKF, PKF-118-310]", "values": [{"measurement": "IL-1β and TNF-α induced cartilage degradation", "setting": "WNT/β-catenin", "result": "block IL-1β and TNF-α induced cartilage degradation"}, {"measurement": "total DNA", "setting": "[1]", "result": "drastically decreased total DNA"}]}, {"compound": "TNF-α", "values": [{"measurement": "total DNA of cell monolayer", "setting": "[4]", "result": "no differences in DNA"}]}]}
